From US20040259770A1, “Method for determining leukocyte activation” (Rush University Medical Center, priority 2003, published 2004)

Columns and labels:
[1] = tested on: eosinophils; test: Eosinophil superoxide production (cytochrome c reduction) in protein-coated tissue culture wells; assay type: cell-based, human; conditions: for inhibition of superoxide production stimulated by immobilized lactoferrin (in words): lower concentrations of heparin, any of the concentrations of chondroitin sulfate (30 to 1000 micrograms per milliliter); for inhibition of superoxide production stimulated by 30 micrograms per milliliter of immobilized lactoferrin: heparin 1000 micrograms per milliliter (highest concentration tested), 120 minutes at 37° C
Method: Neutrophils were isolated from venous blood of healthy adult volunteers by density gradient centrifugation through lymphocyte separation medium (BioWhittaker; Walkersville, Md.) as described previously (Haskell M. D., et al., Blood 86:4627-4637 (1995)) with one modification. Isotonicity was restored following the brief hypotonic lysis steps by the addition of 2× concentrated Hank's Balanced Salt Solution (HBSS) (Gibco; Grand Island, N.Y.) (without Ca^2+ and Mg^2+) containing 5 mM HEPES, pH 7.4. The cells were suspended in HEPES (10 mM)-buffered HBSS (with Ca^2+ and Mg^2+), pH 7.4, containing 1 milligram per milliliter of human serum albumin (HSA) (Sigma Chemical Co.) (HEPES-HBSS-HSA buffer). Neutrophil purity was routinely greater than 95 percent, with eosinophils representing the remainder of the cells. Eosinophils were isolated from the neutrophil preparations by negative selection (Hansel T. T., et al., J. Immunol. Meth. 145:105-10 (1991)) using anti-CD16 immunomagnetic beads as described by the manufacturer (Miltenyi Biotec, Inc., Auburn, Calif.). The eosinophils were suspended in HEPES-HBSS-HSA buffer. Eosinophil purity was routinely greater than 95 percent as determined by counting Wright-stained cytospin preparations. In some assays, an aliquot of the neutrophil preparation was held on ice for later use.
Superoxide production was measured essentially as described elsewhere (Motegi, Y., and H. Kita, J. Immunol. 161:4340 (1998)). Briefly, wells in a 96-well (flat bottom) tissue culture plate (Corning, Inc.; Corning, N.Y.) were coated with human milk lactoferrin (Sigma Chemical Co.) or human secretory IgA (ICN Biomedical; Aurora, Ohio) by incubation with 50 microliters of the indicated concentrations of the proteins in phosphate buffered saline (PBS) overnight at 4° C. Non-specific protein binding sites were blocked by subsequent incubation with 100 microliters of 25 milligrams per milliliter of HSA in PBS for 2 hours at 37° C., and the tissue culture wells were washed twice with PBS before use. Aliquots (5×10^4 cells) of eosinophils or neutrophils were added to the wells and were incubated in HEPES-HBSS—HSA buffer containing 50 micromolar cytochrome c (Sigma Chemical Co.) for 120 minutes at 37° C. in a Ceres UV900HDi microplate reader (Bio-Tek Instruments, Inc., Winooski, Vt.). Total incubation volume was 0.2 milliliters. Absorbance at 550 nanometers was recorded at 15-minute intervals, and superoxide production was calculated as described previously (Motegi, Y., and H. Kita, J. Immunol. 161:4340 (1998)). Results are expressed as nanomoles superoxide per 10^5 cells after subtraction of spontaneous production, which was measured in tissue culture wells coated only with HSA. GM-CSF (R & D Systems; Minneapolis, Minn.), porcine heparin (Sigma Chemical Co.), or chondroitin sulfate C (Sigma Chemical Co.) was added to the incubation mixtures in some assays as indicated.

[2] = tested on: eosinophils; test: Eosinophil leukotriene C4 production by ELISA; assay type: cell-based, human
Method: Eosinophils (2×10^5) were incubated in the presence and absence of 100 pg/ml GM-CSF in RPMI 1640 containing 10 mM HEPES for 1 hr at 37° C. in tissue culture wells precoated with lactoferrin or secretory IgA as above with one modification. The tissue culture wells were not treated with HSA and HSA was not added to the incubation buffer to minimize loss of leukotriene C4. Total incubation volume was 0.2 ml. Reactions were stopped by centrifugation at 300 g for 5 min at 4° C., and supernatants were stored at −20° C. until measurement of leukotriene C4 content by a leukotriene C4/D4/E4 ELISA (Amersham Pharmacia Biotech; Piscataway, N.J.). Spontaneous leukotriene C4 production was determined with eosinophils incubated in untreated tissue culture wells.

[3] = tested on: eosinophils; test: Eosinophil degranulation: EDN release by ELISA; assay type: cell-based, human; conditions: 100 picograms per milliliter GM-CSF, 3 and 10 micrograms per milliliter immobilized lactoferrin
Method: Eosinophils (2×10^5) were incubated in the presence and absence of 100 picograms per milliliter of GM-CSF in RPMI 1640 containing 1 milligram per milliliter of HSA for 4 hours at 37° C. in 5 percent CO2 in tissue culture wells precoated with lactoferrin or secretory IgA as above. Total incubation volume was 0.2 milliliters. Reactions were stopped by centrifugation at 300 g for 5 minutes at 4° C., and supernatants were stored at −20° C. until measurement of eosinophil-derived neurotoxin (EDN) content by specific ELISA (MBL International, Watertown, Mass.). Spontaneous release of EDN was determined with cells incubated in HSA-coated wells.

[4] = tested on: lactoferrin receptors on eosinophils; test: Binding of 125I-labeled lactoferrin by eosinophils, Scatchard analysis; set-up: species or system human; conditions: 5 micromolar transferrin, 90 nanomolar 125I-labeled lactoferrin, n=2
Method: Lactoferrin (100 micrograms) was radioiodinated using IODO-GEN iodination reagent (Pierce; Rockford, Ill.) according to the procedure supplied by the manufacturer. The lactoferrin was incubated with 400 micro Curies Na^125I (PerkinElmer Life Sciences; Boston, Mass.) for 3 min, and the ^125I-labeled lactoferrin was separated from free Na^125I by chromatography through a 5-ml D-Salt dextran desalting column (Pierce) using PBS as the elution buffer. Protein concentration of the ^125I-labeled lactoferrin was measured by the BCA assay (Pierce). Specific activity of the ^125I-labeled lactoferrin was 34,800 cpm/pmole. […] Binding of ^125I-labeled lactoferrin by eosinophils was determined using a modification of previously described protocols for eosinophils. Motegi et al. J. Immunol. […] In some experiments as indicated, binding was measured in the presence of excess unlabeled transferrin. […] The supernatant was removed by careful aspiration, and after quick-freezing on dry ice the tip of the tube containing the cell pellet was excised and the radioactivity was measured by gamma counting (Beckman Coulter Gamma 5500B). Specific binding was determined as the difference between total binding and binding in the presence of the excess unlabeled lactoferrin. Binding constants were determined by Scatchard analysis (Scatchard, G., Ann. N.Y. Acad. Sci. 51:660 (1949)).

chondroitin sulfate [reference compound]
effect on superoxide production stimulated by immobilized lactoferrin (in words) ([1]; 1000 micrograms per milliliter, 30 micrograms per milliliter immobilized lactoferrin): slight, but statistically significant, increase in superoxide production
inhibition of superoxide production stimulated by immobilized lactoferrin (in words) [1]: neither the lower concentrations of heparin nor any of the concentrations of chondroitin sulfate inhibited the eosinophil superoxide production

heparin [reference compound]
inhibition of superoxide production stimulated by 10 micrograms per milliliter immobilized secretory IgA ([1]; 1000 micrograms per milliliter heparin, not statistically significant (p=0.07)): 28+/−11%
inhibition of superoxide production stimulated by 30 micrograms per milliliter of immobilized lactoferrin [1]: approximately 25%
inhibition of superoxide production stimulated by 30 micrograms per milliliter of immobilized lactoferrin ([1]; listed as Heparin): 25%
inhibition of superoxide production stimulated by immobilized lactoferrin (in words) [1]: neither the lower concentrations of heparin nor any of the concentrations of chondroitin sulfate inhibited the eosinophil superoxide production

GM-CSF: granulocyte macrophage colony stimulating factor (R & D Systems)
leukotriene C4 production ([2]; 100 picograms per milliliter GM-CSF alone, 1 hour): 175 picograms leukotriene C4 per 10^6 eosinophils
effect of GM-CSF on leukotriene C4 release stimulated by immobilized lactoferrin ([2]; 100 picograms per milliliter GM-CSF, 10 to 100 micrograms per milliliter immobilized lactoferrin): significantly enhanced leukotriene C4 release
reduction by GM-CSF of the concentration of immobilized lactoferrin required for maximal superoxide production or EDN release ([1]; 100 picograms per milliliter GM-CSF): approximately three-fold
effect of GM-CSF on superoxide production stimulated by immobilized lactoferrin ([1]; 100 picograms per milliliter GM-CSF, 10 micrograms per milliliter immobilized lactoferrin): enhanced the amount of superoxide production
effect of GM-CSF on superoxide production stimulated by immobilized lactoferrin ([1]; 100 picograms per milliliter GM-CSF, higher concentrations of immobilized lactoferrin): did not appear to increase the level of superoxide production
GM-CSF stimulated superoxide production ([1]; GM-CSF alone (100 picograms per milliliter), 2-hour time point, five assays): 2.8±0.7 nanomoles of superoxide per 10^5 eosinophils
effect of GM-CSF on EDN release stimulated by immobilized lactoferrin [3]: significantly enhanced EDN release

transferrin: unlabeled transferrin used in excess as competitor in the binding experiments [reference compound]
inhibition of eosinophil binding of 125I-labeled lactoferrin [4]: not inhibited

immobilized transferrin: transferrin, family member of lactoferrin, coated on tissue culture wells [reference compound]
stimulation of eosinophil superoxide production (in words) ([1]; 1 to 100 micrograms per milliliter of the protein, 2 hours at 37° C): did not stimulate superoxide production
